Source: publication PMC3914206

What was measured:
Format in all cases: binding
Conditions in all cases: Compound Concentration 10 µM
panel of 442 kinases [1] = biological target: T1, panel of 442 kinases (Homo sapiens, UniProt Q8WTQ7)
T1 construct: purchased KINOMEscan
T1 sequence (Q8WTQ7 1-553): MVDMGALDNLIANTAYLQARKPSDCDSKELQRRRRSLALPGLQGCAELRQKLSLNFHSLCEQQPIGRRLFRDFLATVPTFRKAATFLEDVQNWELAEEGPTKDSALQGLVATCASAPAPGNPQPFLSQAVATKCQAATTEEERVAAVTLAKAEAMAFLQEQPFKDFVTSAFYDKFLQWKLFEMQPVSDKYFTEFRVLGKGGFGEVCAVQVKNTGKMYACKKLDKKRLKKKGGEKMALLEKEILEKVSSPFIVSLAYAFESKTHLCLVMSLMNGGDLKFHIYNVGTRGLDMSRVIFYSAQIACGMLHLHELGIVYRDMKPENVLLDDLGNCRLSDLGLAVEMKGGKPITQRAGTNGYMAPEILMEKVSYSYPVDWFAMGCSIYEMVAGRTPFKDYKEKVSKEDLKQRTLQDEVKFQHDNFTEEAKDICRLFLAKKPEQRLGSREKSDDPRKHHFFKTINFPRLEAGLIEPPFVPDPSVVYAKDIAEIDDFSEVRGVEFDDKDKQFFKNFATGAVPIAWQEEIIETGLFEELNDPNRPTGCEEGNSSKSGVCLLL
Excerpt: (§1) We assessed the selectivity of members of this scaffold using the KINOMEscan methodology across a near comprehensive panel of 442 kinases [[18,27]].

panel of 442 kinases [2] = biological target: T2, panel of 442 kinases (Homo sapiens, UniProt P53671)
T2 construct: purchased KINOMEscan
T2 sequence (P53671 whole entry): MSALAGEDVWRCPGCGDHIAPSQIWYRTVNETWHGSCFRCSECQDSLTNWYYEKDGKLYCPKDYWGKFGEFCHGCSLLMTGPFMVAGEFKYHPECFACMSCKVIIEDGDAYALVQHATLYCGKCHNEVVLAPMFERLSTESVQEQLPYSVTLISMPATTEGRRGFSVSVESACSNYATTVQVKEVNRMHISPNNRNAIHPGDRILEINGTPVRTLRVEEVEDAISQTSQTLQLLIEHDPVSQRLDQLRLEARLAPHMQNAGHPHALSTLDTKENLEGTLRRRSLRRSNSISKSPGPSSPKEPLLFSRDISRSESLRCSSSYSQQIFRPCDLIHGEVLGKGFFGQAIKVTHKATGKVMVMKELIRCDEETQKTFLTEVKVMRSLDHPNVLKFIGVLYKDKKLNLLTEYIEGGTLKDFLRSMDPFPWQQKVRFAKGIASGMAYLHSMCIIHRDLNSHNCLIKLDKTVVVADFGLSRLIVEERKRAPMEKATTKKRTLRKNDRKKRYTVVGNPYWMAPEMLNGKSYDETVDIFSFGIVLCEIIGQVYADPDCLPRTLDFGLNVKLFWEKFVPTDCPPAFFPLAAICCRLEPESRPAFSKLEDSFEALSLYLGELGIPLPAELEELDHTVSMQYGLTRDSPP
Excerpt: as §1

panel of 442 kinases [3] = biological target: T3, panel of 442 kinases (Homo sapiens, UniProt P49137)
T3 construct: purchased KINOMEscan
T3 sequence (P49137 whole entry): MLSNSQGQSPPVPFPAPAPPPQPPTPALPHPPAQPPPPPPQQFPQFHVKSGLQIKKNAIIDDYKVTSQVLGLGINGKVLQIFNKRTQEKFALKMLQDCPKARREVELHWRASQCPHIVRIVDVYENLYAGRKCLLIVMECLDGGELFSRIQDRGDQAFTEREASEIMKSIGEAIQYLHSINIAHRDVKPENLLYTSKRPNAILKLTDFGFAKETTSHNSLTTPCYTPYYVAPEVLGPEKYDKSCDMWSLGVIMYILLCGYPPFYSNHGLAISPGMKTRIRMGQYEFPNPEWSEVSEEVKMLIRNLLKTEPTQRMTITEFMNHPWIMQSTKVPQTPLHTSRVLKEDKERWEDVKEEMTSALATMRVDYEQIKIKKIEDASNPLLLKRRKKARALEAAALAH
Excerpt: as §1

Compound	KINOMEscan: GRK7 (panel of 442 kinases [1])	KINOMEscan: LIMK2 (panel of 442 kinases [2])	KINOMEscan: MAPKAPK2 (panel of 442 kinases [3])
COc1cc(C(=O)N2CCC(N3CCN(C)CC3)CC2)ccc1Nc1ncc2c(n1)N(C)c1ccccc1C(=O)N2C [15 (LRRK2-IN-1)]	100	100	100
COc1cc(C(=O)N2CCC(N3CCN(C)CC3)CC2)ccc1Nc1ncc2c(n1)N(C1CCCC1)c1ccccc1C(=O)N2C [Compound 25, 11-cyclopentyl-2-((2-methoxy-4-(4-(4-methylpiperazin-1-yl)piperidine-1-carbonyl)phenyl)amino)-5-methyl-5H-benzo[e]pyrimido[5,4-b][1,4]diazepin-6(11H)-one]	94	100	100
CCOc1cc(C(=O)N2CCC(N3CCN(C)CC3)CC2)ccc1Nc1ncc2c(n1)N(C1CCCC1)c1ccccc1C(=O)N2C [Compound 26]	100	100	100
